# Experimental data published in article PMC7429991 (Journal of medicinal chemistry, 2020).
# Counter-ions that a name gives are not always drawn.
# Assays:
# human eNOS (heNOS) = human eNOS (heNOS) (Homo sapiens, UniProt P29474)
# human iNOS (hiNOS) = human iNOS (hiNOS) (Homo sapiens, UniProt P35228); details: read-out: Ki hiNOS; purified human iNOS; Ki from IC50 (Cheng-Prusoff)
# H2 receptor = H2 receptor (Homo sapiens, UniProt P25021); experiment: PDSP off-target binding, H2 receptor
# D597N rnNOS = D597N rnNOS (Rattus norvegicus, UniProt P29476, D597N)
# [1] = from PAMPA-BBB Pe
# rat nNOS (rnNOS) = rat nNOS (rnNOS) (Rattus norvegicus, UniProt P29476)
# H3 receptor = H3 receptor (Homo sapiens, UniProt Q9Y5N1); experiment: PDSP off-target binding, H3 receptor
# [2] = tested on: panel of 45 pharmacologically relevant CNS targets and receptors; experiment: PDSP off-target radioligand displacement screen; format: binding; details: for PDSP targets classified moderate / PDSP targets classified insignificant / PDSP targets classified weak / PDSP targets classified Concerning: number of 45 targets; for PDSP targets classified moderate: 100–300 nM; for PDSP targets classified insignificant: <50% bound at 10 μM; for PDSP targets classified weak: >300 nM; for fraction of concerning or moderate hits: PDSP panel
# M336V/D597N rnNOS = M336V/D597N rnNOS (Rattus norvegicus, UniProt P29476, D597N/M336V); details: M336V/D597N vs D597N rnNOS
# M336V/D597N rnNOS, sequence (P29476 whole entry M336V/D597N): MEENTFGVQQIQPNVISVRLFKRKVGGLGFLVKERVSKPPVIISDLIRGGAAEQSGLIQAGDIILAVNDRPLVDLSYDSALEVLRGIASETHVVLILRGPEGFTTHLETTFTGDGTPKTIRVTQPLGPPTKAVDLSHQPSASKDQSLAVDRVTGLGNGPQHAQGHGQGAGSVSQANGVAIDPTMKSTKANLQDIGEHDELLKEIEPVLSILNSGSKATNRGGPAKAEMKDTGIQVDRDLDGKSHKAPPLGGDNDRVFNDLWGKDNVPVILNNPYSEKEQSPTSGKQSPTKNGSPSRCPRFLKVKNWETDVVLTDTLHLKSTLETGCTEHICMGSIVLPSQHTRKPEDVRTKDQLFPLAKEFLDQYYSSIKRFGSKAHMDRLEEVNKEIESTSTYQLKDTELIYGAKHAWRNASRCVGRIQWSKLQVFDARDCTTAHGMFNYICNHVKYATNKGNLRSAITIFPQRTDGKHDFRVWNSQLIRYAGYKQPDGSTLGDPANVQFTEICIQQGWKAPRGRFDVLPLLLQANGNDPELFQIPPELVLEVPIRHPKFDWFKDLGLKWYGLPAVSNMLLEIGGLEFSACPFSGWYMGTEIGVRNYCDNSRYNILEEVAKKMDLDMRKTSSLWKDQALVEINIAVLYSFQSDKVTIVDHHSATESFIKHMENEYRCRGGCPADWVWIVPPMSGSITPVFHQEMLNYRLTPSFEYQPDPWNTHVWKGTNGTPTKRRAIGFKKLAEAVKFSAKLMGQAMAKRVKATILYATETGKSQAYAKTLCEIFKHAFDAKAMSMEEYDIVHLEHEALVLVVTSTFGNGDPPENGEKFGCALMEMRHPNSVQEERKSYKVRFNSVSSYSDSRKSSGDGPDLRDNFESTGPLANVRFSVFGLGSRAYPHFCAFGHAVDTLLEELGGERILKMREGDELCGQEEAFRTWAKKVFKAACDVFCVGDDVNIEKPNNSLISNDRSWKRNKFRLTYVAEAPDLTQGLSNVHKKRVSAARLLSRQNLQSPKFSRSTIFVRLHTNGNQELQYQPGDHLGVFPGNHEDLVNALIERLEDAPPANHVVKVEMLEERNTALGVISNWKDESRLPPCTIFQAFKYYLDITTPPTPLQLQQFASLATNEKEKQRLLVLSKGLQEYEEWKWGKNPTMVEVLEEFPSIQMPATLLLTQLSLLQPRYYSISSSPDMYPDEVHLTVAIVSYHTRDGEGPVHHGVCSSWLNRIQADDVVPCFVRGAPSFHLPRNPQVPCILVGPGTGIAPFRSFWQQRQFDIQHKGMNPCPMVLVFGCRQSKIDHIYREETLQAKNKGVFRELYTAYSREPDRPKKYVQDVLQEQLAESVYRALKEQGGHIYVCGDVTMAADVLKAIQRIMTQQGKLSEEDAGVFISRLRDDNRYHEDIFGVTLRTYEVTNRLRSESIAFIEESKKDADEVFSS
# H2 receptor, sequence (P25021 whole entry): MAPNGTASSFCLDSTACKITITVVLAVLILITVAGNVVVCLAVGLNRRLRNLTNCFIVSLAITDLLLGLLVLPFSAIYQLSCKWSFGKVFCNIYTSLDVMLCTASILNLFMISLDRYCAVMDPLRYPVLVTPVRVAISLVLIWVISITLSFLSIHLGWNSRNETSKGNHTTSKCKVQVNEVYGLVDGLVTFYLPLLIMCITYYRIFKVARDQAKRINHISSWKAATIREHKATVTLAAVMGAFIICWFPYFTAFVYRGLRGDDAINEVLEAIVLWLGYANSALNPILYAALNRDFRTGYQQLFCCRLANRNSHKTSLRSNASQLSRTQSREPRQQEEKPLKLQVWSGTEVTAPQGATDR
# H3 receptor, sequence (Q9Y5N1 whole entry): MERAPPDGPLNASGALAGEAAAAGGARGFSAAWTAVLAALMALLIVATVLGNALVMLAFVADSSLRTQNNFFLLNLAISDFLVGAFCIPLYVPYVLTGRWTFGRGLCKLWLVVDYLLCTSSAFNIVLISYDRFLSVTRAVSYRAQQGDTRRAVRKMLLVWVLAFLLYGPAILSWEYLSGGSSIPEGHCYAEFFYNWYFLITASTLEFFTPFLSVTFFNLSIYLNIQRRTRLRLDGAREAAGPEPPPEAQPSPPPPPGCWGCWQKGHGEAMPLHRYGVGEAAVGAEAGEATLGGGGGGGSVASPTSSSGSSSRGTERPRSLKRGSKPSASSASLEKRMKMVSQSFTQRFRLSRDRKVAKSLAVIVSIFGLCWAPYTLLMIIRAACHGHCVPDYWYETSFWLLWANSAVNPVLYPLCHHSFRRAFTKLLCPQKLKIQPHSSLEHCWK
molecule,measurement,setting,value
7-(3-(2-Aminoethyl)phenyl)-4-methylquinolin-2-amine Dihydrochloride [compound 12],% remaining at 60 min (- NADPH),"HLM without NADPH, pH 7.4",87%
same,% remaining at 60 min (Buffer),buffer control,67%
same,CLint,"in vitro intrinsic clearance, HLM",8 mL/min/kg
same,Ki,"human eNOS (heNOS); read-out: Ki heNOS, purified human eNOS, Ki calculated from IC50",52.6 µM
same,Ki,human iNOS (hiNOS),29.9 µM
same,"off-target binding class, H2 receptor",H2 receptor,"concerning (concerning (Ki < 100 nM, or <~2 × nNOS Ki value))"
same,Ki,"D597N rnNOS; read-out: Ki D597N rnNOS, single mutant (SM) of rat nNOS",0.416 µM
same,"decrease in potency, D597N mutant",D597N rnNOS; versus wild type,8 fold
same,prediction (CNS),[1],CNS (+) (classified as a “CNS (+)” molecule if its effective permeability (Pe) in this assay is larger than 4.0 × 10^–6 cm s^–1)
"CNCCc1ccc(-c2ccc3c(C)cc(N)nc3c2)cc1.Cl.Cl [compound 6, 4-Methyl-7-(4-(2-(methylamino)ethyl)phenyl)quinolin-2-amine Dihydrochloride]",loss in rnNOS activity,rat nNOS (rnNOS); relative to 5,> 2 fold
"Cc1cc(N)nc2cc(-c3ccc(CN)cc3)ccc12.Cl.Cl [compound 7, 7-(4-(Aminomethyl)phenyl)-4-methylquinolin-2-amine Dihydrochloride]",prediction (CNS),[1],CNS (+) (classified as a “CNS (+)” molecule if its effective permeability (Pe) in this assay is larger than 4.0 × 10^–6 cm s^–1)
same,increase in rnNOS activity,rat nNOS (rnNOS); relative to 5,2.3 fold
"Cc1cc(N)nc2cc(-c3cncc(CN)c3)ccc12.Cl.Cl.Cl [compound 15, 7-(5-(Aminomethyl)pyridin-3-yl)-4-methylquinolin-2-amine Trihydrochloride]",less potent than 12 in rnNOS,rat nNOS (rnNOS); relative to 12,approximately 5 fold
"Cc1cc(N)nc2cc(-c3ccc(OCC4CC4)c(CN)c3)ccc12 [compound 29, 7-(3-(Aminomethyl)-4-(cyclopropylmethoxy)phenyl)-4-methylquinolin-2-amine Dihydrochloride]","off-target binding class, H3 receptor",H3 receptor,"concerning (concerning (Ki < 100 nM, or <~2 × nNOS Ki value))"
same,PDSP targets classified moderate,[2],4
same,PDSP targets classified insignificant,[2],13
same,PDSP targets classified weak,[2],27
same,PDSP targets classified Concerning,[2]; Ki < 100 nM,1
same,prediction (CNS),[1],CNS (+) (classified as a “CNS (+)” molecule if its effective permeability (Pe) in this assay is larger than 4.0 × 10^–6 cm s^–1)
"Cc1cc(N)nc2cc(-c3ccc(OCc4ccccn4)c(CN)c3)ccc12 [compound 32, 7-(3-(Aminomethyl)-4-(pyridin-2-ylmethoxy)phenyl)-4-methylquinolin-2-amine Trihydrochloride]",fraction of concerning or moderate hits,[2],11 /45
same,PDSP targets classified insignificant,[2],12
same,PDSP targets classified weak,[2],22
same,PDSP targets classified Concerning,[2]; […],4
"Cc1cc(N)nc2cc(-c3ccc(OCc4cccnc4)c(CN)c3)ccc12 [compound 33, 7-(3-(Aminomethyl)-4-(pyridin-3-ylmethoxy)phenyl)-4-methylquinolin-2-amine Trihydrochloride]",improvement in binding affinity toward heNOS,human eNOS (heNOS); 33 versus 32,3 fold
same,fraction of concerning or moderate hits,[2],8 /45
same,PDSP targets classified moderate,[2],5
same,PDSP targets classified insignificant,[2],20
same,PDSP targets classified weak,[2],17
same,PDSP targets classified Concerning,[2]; […],3
same,prediction (CNS),[1],CNS (+) (classified as a “CNS (+)” molecule if its effective permeability (Pe) in this assay is larger than 4.0 × 10^–6 cm s^–1)
"Cc1cc(N)nc2cc(-c3ccc(OCc4cocn4)c(CN)c3)ccc12 [compound 36, 7-(3-(Aminomethyl)-4-(oxazol-4-ylmethoxy)phenyl)-4-methylquinolin-2-amine Trihydrochloride]",increased potency against the double mutant (versus the single mutant),M336V/D597N rnNOS,5 fold
"Cc1cc(N)nc2cc(-c3ccc(OCc4cncs4)c(CN)c3)ccc12 [compound 37, 7-(3-(Aminomethyl)-4-(thiazol-5-ylmethoxy)phenyl)-4-methylquinolin-2-amine Trihydrochloride]",prediction (CNS),[1],CNS (+) (classified as a “CNS (+)” molecule if its effective permeability (Pe) in this assay is larger than 4.0 × 10^–6 cm s^–1)
"NCCc1ccc(O)c(O)c1 [dopamine, reference compound]",prediction (CNS),[1],CNS (−)
